What was measured:
[1] = system: artificially infested V. dahliae soil; assay: Greenhouse eggplant bioassay (plant height) in treated, artificially infested V. dahliae soil; type: in vivo; conditions: preliminary; for eggplant height Jul. 27, 2017: soil treated Jun. 27, 2017, eggplant transplanted July 13, rates gal/acre on 12 inch soil depth, letters after value = statistical grouping, untreated 118; for eggplant height Aug. 4, 2017 / eggplant height Aug. 10, 2017 / eggplant height Aug. 17, 2017: soil treated Jun. 27, 2017, letters = statistical grouping; for eggplant height Aug. 4, 2017: untreated 124; for eggplant height Aug. 10, 2017: untreated 134
Experimental: In these tests, greenhouse and microplot trials were done to further define the LSS efficacy as stand-alone treatment as well as in combination with Sectagon®. A large number of soil samples were treated using the rates below, expressed as gallons equivalent per acre of (LSS), a 3.07 pounds Calcium Polysulfide per gallon Liquid Lime Sulfur Solution, and Sectagon®, a 4.25 pound per gallon sodium methyldithiocarbamate (metam) solution. Each treatment was performed on six samples to provide statistically valid data. As always, though the treatment is defined in terms of gallons per acre of two products, the testing is with a mixture.
To minimize sample variability that was apparent in certain previous tests, these tests were a greenhouse study, using artificially infested V. dahliae soil. A soil derived from a Romaine lettuce field in Salinas, Calif. (collected September 2015) was confirmed (January 2017) to be highly infested with V. dahliae. Romaine lettuce were grown in the V. dahliae infested soil until microsclerotia built up in the leaves. Infested leaves were harvested, dried, crumbled, and mixed with autoclaved sand. Samples of the mixture were tested for V. dahliae. The mixture was used for the greenhouse study and for the production of pathogen bags for the microplot study.
Artificially infested V. dahliae soil were treated according to the above list. The greenhouse/eggplant study utilize a sterile sand+10% potting mix soil. The inoculated soil was pre-irrigated to ca. 70% field capacity for 14 days, and was then soil placed in various containers, each of which was then treated with appropriate LSS/Metam mixture in a certain volume of water. The soil was thoroughly mixed/agitated, and left sealed for 24 hours to simulate a water seal or tarp. The container was then unsealed 24 hours after application and allowed to sit for 14 days and then mixed and apportioned into 4″ pots for growing eggplant as the bioassay.
To simulate a situation closer to field conditions, a field based microplot study was also established for a few of the above tests, using eggplant. The greenhouse/eggplant study utilized a sterile sand+10% potting mix soil; the inoculated soil was pre-irrigated to ca. 70% field capacity for 14 days; soil was placed in a bucket, treated with appropriate LSS/Metam mixture in correct volume of water, thoroughly mixed/agitated, and left sealed for 24 hours to simulate a water seal or tarp. The bucket was unsealed at 24 hours after application and allowed to sit for 14 days and then mixed and apportioned into 4″ pots for growing eggplant as the bioassay. Seven days after treatment, one soil sample per replicate was taken. V. dahliae control efficacy was assessed according to the methods below, but only on selected treatments due to time pressures. At 14 days after treatment, eggplants were grown in the remaining soil to assess treatment effects on vigor and growth. […] Microplots were located at the USDA Research Field at Spence Road, Salinas, Calif. Treatments were selected based on the results of the previous greenhouse study. Trial site was pre-irrigated for 7 days before placing the Verticillium, V. dahliae, sample bags in the various treatments. Sprinkler irrigation was used to establish 60-80% soil moisture. Four V. dahliae samples per replicate were artificially introduced at 4 and 8 inches depth. Treatments were applied with micro emitter and drip across the microplot. The treatment using a 2 hour drip irrigation period was anticipated to provide penetration to 12 inch depth. After treatment, microplots remained untarped. After 5-7 days V. dahliae samples were recovered.
All LSS and Sectagon® treatments were made, mixing the treatment well with the soil and covering to prevent outgassing on Jun. 27, 2017. On June 28 the lids were removed lids. […]

Verticillium = assay: Jar test 2016: Verticillium microsclerotia colonies in treated soil, dry soil plating on NP-10; type: cell-based, Verticillium dahliae; conditions: 2016 test; microsclerotia colonies per gram of soil post-treatment; soil 20% water content; 4 replicates
Experimental: These investigations were performed under laboratory conditions in an initial jar test. We also investigated the pathogen control efficacy of LSS treatments, at 30 gal/acre (90 pounds/acre or 101 Kg/ha of calcium polysulfide) and at 90 gal/acre (276 pounds/acre or 310 Kg/ha of calcium polysulfide), and combined Metam/LSS treatments using Sectagon® brand metam at 20 gal/acre Metam (84 pounds/acre or 94 Kg/ha of metam sodium) with 40 gal/acre LSS (122 pounds/acre or 138 Kg/ha of calcium polysulfide); and at 30 gal/acre Metam (126 pounds/acre or […] of metam sodium) with 20 gal/acre LSS (60 pounds/acre or 67 kg/ha of calcium polysulfide). […] This may be due to lower water saturation in the 2016 tests compared to the saturation in 2015 tests, which was near 100%.
Each treatment listed in Table 1 was replicated 4 times. Verticillium levels in soil were assessed by dry incubation on semi selective media (NP-10) method. Soil collected from a Romaine lettuce field in Salinas, Calif. was used for the investigation. […]
Experimental Setup: Seven treatments were installed in 4 replicates each. […] The equivalent of gal/acre was calculated on the assumption that on acre of soil has an average weight of 3,625,895 lbs. […] Afterwards, soil was split between the two laboratories and were assessed according to the method described.
Verticillium levels in soil were assessed by dry incubation on semi selective media (NP-10). […]
The quantity of Verticillium in soil was assessed by dry soil plating on NP-10 semi-selective medium. […] After that, remaining soil was gently washed off the plates and the number of Verticillium microsclerotia colonies were counted on each plate under a microscope. The number of microsclerotia colonies is used as a standard method to quantify Verticillium in soil and was extrapolated for 1 g soil.
Results were analyzed in a one-way ANOVA (P=0.05) and a Fisher LSD Post-Hoc test. […]
Verticillium assessments were performed parallel in two separate laboratories. […] The quantity of Verticillium in soil was assessed by dry soil plating on NP-10 semi-selective medium. […]

Row | SMILES | eggplant height Jul. 27, 2017 [1] | eggplant height Aug. 4, 2017 [1] | eggplant height Aug. 10, 2017 [1] | eggplant height Aug. 17, 2017 ([1]; untreated 138) | eggplant height Aug. 17, 2017 ([1]; untreated 138, listed as comparative example 10) | Verticillium quantity (ms/g) Lab A (Verticillium) | Verticillium quantity (ms/g) Lab B (Verticillium)
1 | CNC(=S)[S-].[Na+] [Sample 8, sodium methyldithiocarbamate] | 140abcde mm | 145 cdefg mm | 159 bcdef mm | 163bcde mm | – | – | –
2 | CNC(=S)[S-].[Na+] [Sample 9, sodium methyldithiocarbamate] | 138bcdef mm | 150cdefg mm | 155cdefg mm | 160bcdef mm | – | – | –
3 | CNC(=S)[S-].[Na+] [Sample 10, sodium methyldithiocarbamate] | 150abc mm | 160bcde mm | 169abcde mm | 171acbd mm | 171 mm | – | –
4 | CNC(=S)[S-].[Na+] [Comp. Example 3, sodium methyldithiocarbamate] | – | – | – | – | – | 0.5 ± 0.5 ms/g | 12 ± 3 ms/g

— patent US11039618B2, “Metam salts and polysulfide soil treatment” (Tessenderlo Kerley, Inc, priority 2016, dated 2021)
